Target: T1, PenA1 β-lactamase (class A carbapenemase) (Burkholderia multivorans, UniProt A0A0H3KN52)
T1 construct: gene ampC
Experiment: steady-state β-lactamase inhibition kinetics (Ki app, k2/K, koff)
Type: biochemical
Conditions: read-out: Taniborbactam

T1 sequence (A0A0H3KN52 entry or part of it): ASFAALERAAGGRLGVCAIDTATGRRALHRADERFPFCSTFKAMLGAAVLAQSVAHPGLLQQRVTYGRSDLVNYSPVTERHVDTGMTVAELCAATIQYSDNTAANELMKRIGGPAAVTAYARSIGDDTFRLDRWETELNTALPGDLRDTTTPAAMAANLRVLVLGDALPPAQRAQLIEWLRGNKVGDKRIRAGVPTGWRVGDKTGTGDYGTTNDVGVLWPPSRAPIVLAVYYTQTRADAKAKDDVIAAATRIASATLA

Ki: 400 ± 40 nM
Compound: NCCN[C@H]1CC[C@H](CC(=O)N[C@H]2Cc3cccc(C(=O)O)c3OB2O)CC1 [taniborbactam]

— article PMC10648927, “Examining the activity of cefepime-taniborbactam against Burkholderia cepacia complex and Burkholderia gladioli isolated from cystic fibrosis patients in the United States” (Antimicrobial Agents and Chemotherapy, 2023)
